Entries after “also recorded” stand apart in the source; their conditions may differ. Where two headings read alike, the source gives them in different places.
Tests used:
retina [1] = experiment: Photopic electroretinogram (ERG) in VGB-treated mice; type: in vivo, BALB/c mice
Method: (§1) ERG were recorded as described previously after the last VGB injection (Duboc et al., 2004). Anesthesia was induced by an intramuscular injection of a solution containing ketamine (100 mg/kg) and xylazine (10 mg/kg). After 10 min adaptation to a […] light intensity, ten recordings were obtained with flash intensity of 10 cdsm^-2 at an interstimulus interval 30s and subsequently averaged. These photopic ERG measurements were performed after 59 days in rats and 29 days in mice.
(§2) Sabril IS Investigator and Peer Review Groups. Epilepsia Vol. 37, 638-642 (1996)).
(§3) Animals were light-adapted for 10 minutes with a background light of 25 cdm^-2. Light flashes were then applied on this background light; the light intensity of the flash was 10 cdsm^-2 for the mouse experiments and for the rats maintained in darkness (Figs. 2, 6) or 25 cdsm^-2 for other experiments (Figs 3, 5). Ten recordings were averaged with an interstimulus interval of 30s.

cone photoreceptors [2] = experiment: Retinal histology quantification in VGB-treated rats (cone arrestin, GFAP); type: in vivo, Wistar rats Rj Wi IOPS Han
Method: (§4) Sabril IS Investigator and Peer Review Groups. Epilepsia Vol. 37, 638-642 (1996)). […] The primary antibody added to the solution was incubated for two hours at room temperature. Polyclonal antibodies were directed against VGluT1 (1:2000, Chemicon), rabbit GFAP (1/400, Dako, USA) and mouse cone arrestin (Zhu, X., et al. Mouse cone arrestin expression pattern: light induced translocation in cone photoreceptors. Molecular vision Vol. 8, 462-471 (2002)) (Luminaire junior, LUMIj, 1:20,000). Monoclonal antibodies were directed against Goα (1:2000, Chemicon). […] Inner/outer segments of cone photoreceptors were stained with a peanut lectin (PNA, Sigma) during 12 hours of incubation at 4°C. The dye, diamidiphenyl-indole (DAPI), was added during the final incubation period. […] Following DAPI nuclear staining, the lengths of disorganised retinal areas were measured; GFAP immunostaining was used for detection and quantificationof retinal areas with reactive gliosis. The cone photoreceptor density was calculated following cone arrestin immunostaining (rats) or PNA labelling (mice) to visualise the inner/outer segments of cone photoreceptors; areas with disorganised retinal layering were excluded. Areas with sprouting bipolar cells were quantified following immunolabelling of these cells with the antibody directed against the protein Goα.

cone photoreceptors [3] = experiment: Retinal histology quantification in VGB-treated mice (DAPI, PNA, Goα); type: in vivo, BALB/c mice
Method: as §4

retina [4] = test system: retina; parameters: species or system Wistar rats Rj Wi IOPS Han; details: rat, in vivo
Method: as §1, §2, §3

[5] = rats, VGB 65 days, versus control
Method: VGB was dissolved in 0.9 % NaCl at a concentration of 125 mg/ml. It was administered at 40 mg (125 mg/ml, 0.32 ml) by daily intraperitoneal injection for 45 or 65 days and at 3 mg (60 mg/ml, 0.05 ml) to mice for 29 days (daily dose of about 200 mg/kg in rats and 150 mg/kg in mice). Vitamin B6 (active form) was administered at a dose of 1 mM/kg (solution 154,46 mg/ml) whereas taurine was provided in the drinking water at 0,1 mol/l.
After 65 days of injection, rats were anesthetized for blood sampling. Anesthesia was induced as described above. Under anesthesia an indwelling catheter was placed in the carotid artery. This method allowed obtaining a single, large, good quality blood sample. A 1 mL blood sampling was taken for each rat in a heparinized blood sampler, immediately centrifuged and frozen at -80°C. Automated amino acid ion chromatography (Pasteur Cerba, France) was used for the quantitative determination of total and free amino acids in the samples.
VGB dissolved in 0.9% NaCl was administered at 40mg (125 mg/ml, 0.32ml) to rats by daily intraperitoneal injection for 45 or 65 days and at 3mg (60mg/ml, 0.05ml) to mice for 29 days. […] Taurine supplementation was given in drinking water at a concentration of 0.1M.

retinal ganglion cells = details: young rats, VGB 0.6 mg/day i.p. 25 days, versus control
Method: Animal treatments: Breeds of Wistar rats Rj Wi IOPS Han were purchased from Janvier (Le Genest-St-lsle, France). VGB dissolved in 0.9% NaCl was administered at 0.6mg/jour (6 mg/ml, 0.1ml) to rats by daily intraperitoneal injection for 25 days from age 4 days.
Histology: Animals were anesthetized by intraperitoneal injection (0.8 to 1.2 ml/kg) of a solution containing ketamine (40 mg/ml) and xylazine (4 mg/ml Rompum). They were then perfused first with heaparin 1000Ul/ml in saline solution (0.9% NaCl), then with fixative containing 4% Paraformaldehyde (Merck chemicals ref. : 100496 ) and 0.2% glutaraldehyde (fluka 25%). Eye cups were isolated and fixed overnight at 4°C in 4% (wt/vol) paraformaldehyde in phosphate buffered saline (PBS; 0.01 M, pH 7.4). The tissue was cryoprotected in successive solutions of PBS containing 10%, 20% and 30% sucrose at 4°C, oriented along the dorso-ventral axis and embedded in OCT (Labonord, Villeneuve d'Ascq, France). […]
For quantification, vertical sections along the dorso-ventral axis were selected at the optic nerve. Brn3A -positive retinal ganglion cells were quantified along the complete retinal section. […]

[6] = rats (Sills GJ. et al. 2001); cited from earlier work
GABA = details: rats (Neal MJ. et al. 1989; Cubells JF. et al. 1987); cited from earlier work
[7] = VGB plus taurine versus VGB alone, p<0.001

Cc1ncc(COP(=O)(O)O)c(C=O)c1O [vitamin B6, pyridoxal-5'-phosphate]
photopic ERG amplitude (retina [1]; mice, VGB plus vitamin B6 (active form) 1 mM/kg (Fig. 1B)): smaller decrease in photopic ERG than with vigabatrin alone; also recorded: reduced the decrease in photopic ERG amplitude

NCCS(=O)(=O)O [taurine, 2-aminoethanesulfonic acid]
photopic ERG amplitude (retina [1]; mouse, in vivo): the difference was no longer statistically significant between controls and vigabatrin plus taurine supplementation
GFAP immunostaining (cone photoreceptors [2]; [7]): less extensive in animals receiving taurine supplementation than in animals without supplementation
cone segment density (cone photoreceptors [2]; VGB plus taurine versus VGB alone, p<0.05, remained lower than control): greater in the VGB-treated group with taurine supplementation than in animals without supplementation
sprouting of bipolar cell dendrites (cone photoreceptors [3]; VGB plus taurine): completely suppressed
cone density (cone photoreceptors [3]; [7]): prevented this decrease in cone density
disorganisation of the outer nuclear layer (areas of retinal disorganisation) (cone photoreceptors [3]; VGB plus taurine versus VGB alone, p<0.001 (Fig. 4B)): smaller areas of retinal disorganisation than mice without supplementation

C=CC(N)CCC(=O)O (stereo not drawn) [VGB, 4-amino-5-hexenoic acid]
photopic ERG amplitude (retina [4]): induced a decrease in the photopic electroretinogram (ERG) measurement
GFAP immunostaining (cone photoreceptors [2]; VGB alone): increase in GFAP immunostaining
sprouting of bipolar cell dendrites (cone photoreceptors [3]; VGB alone): observed in VGB-treated mice
density of cone outer and inner segments (cone photoreceptors [3]; VGB alone versus control, p<0.001 (Fig. 4C)): lower densities
decrease of taurine level in vigabatrin-treated animals ([5]; p<0.05): 67%
difference (reduction) for methionine ([5]; significant): 22%
reduction of glutamic acid in the blood sample ([5]; statistically significant): 56%
decrease of the number of retinal ganglion cells (retinal ganglion cells): 56%
concentration in the retina relative to the brain [6]: five-fold higher
GABA concentrations in the brain relative to control rats (GABA): two-fold higher
GABA concentrations in the retina relative to control rats (GABA): five-fold higher

From EP2163246A1, “Taurine or taurine-like substances for the prevention of the irreversible visual effects of vigabatrin” (INSERM (Institut National de la Santé et de la Recherche …, priority 2008, dated 2010)
